Earlier results on one compound are cited in US9745365B2, “Anti-influenza B virus hemagglutinin antibodies and methods of use” (priority 2014, dated 2017).

The data set concerns the target influenza B neuraminidase (Influenza B virus, UniProt P03474). The note with it: higher.

Chain of influenza B neuraminidase (P03474 whole entry): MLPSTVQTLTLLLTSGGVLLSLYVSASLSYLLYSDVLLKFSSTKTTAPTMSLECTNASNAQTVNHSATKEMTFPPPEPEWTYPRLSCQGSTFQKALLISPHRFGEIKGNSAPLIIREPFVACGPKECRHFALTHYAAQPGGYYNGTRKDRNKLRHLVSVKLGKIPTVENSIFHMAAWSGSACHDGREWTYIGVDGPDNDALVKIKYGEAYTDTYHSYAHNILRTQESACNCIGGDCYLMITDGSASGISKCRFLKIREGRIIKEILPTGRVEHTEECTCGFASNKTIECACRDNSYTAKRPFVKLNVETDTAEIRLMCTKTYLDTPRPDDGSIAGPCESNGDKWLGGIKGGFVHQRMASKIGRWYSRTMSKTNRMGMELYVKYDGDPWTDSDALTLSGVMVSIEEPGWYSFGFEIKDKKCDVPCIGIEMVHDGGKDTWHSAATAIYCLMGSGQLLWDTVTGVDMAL

For `CCOC(=O)C1=C[C@@H](OC(CC)CC)[C@H](NC(C)=O)[C@@H](N)C1` [oseltamivir phosphate], the “IC50 for influenza B neuraminidase compared to that for influenza A neuraminidase” value is 10 fold.
